# Laboratory results from patent US20210353721A1, “METHODS AND COMPOSITIONS RELATING TO INHIBITING CARDIOVASCULAR CALCIFICATION VIA ANNEXIN A1” (THE BRIGHAM AND WOMEN'S HOSPITAL, INC., priority 2018, published 2021).
# T1: human ANXA1 (Homo sapiens, UniProt P04083)
# T1 construct: purchased R&D Systems
# T1 sequence (P04083 1-346): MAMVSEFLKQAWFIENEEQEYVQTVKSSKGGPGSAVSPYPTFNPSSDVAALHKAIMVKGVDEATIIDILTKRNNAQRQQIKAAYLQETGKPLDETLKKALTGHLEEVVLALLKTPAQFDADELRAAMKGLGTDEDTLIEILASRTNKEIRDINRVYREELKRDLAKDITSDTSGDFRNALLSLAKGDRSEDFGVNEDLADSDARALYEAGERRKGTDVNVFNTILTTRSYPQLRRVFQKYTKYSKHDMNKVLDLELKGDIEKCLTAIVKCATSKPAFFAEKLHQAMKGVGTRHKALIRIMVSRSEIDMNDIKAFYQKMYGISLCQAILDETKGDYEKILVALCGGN
# B1: GFP-tagged ANXA1: green fluorescent protein tagged human ANXA1 immunopurified from transfected HEK-293 cells (protein)
# chain: T1 sequence (P04083 1-346)
# modifications: left off: large carriers
# notes: green fluorescent protein tagged human ANXA1 immunopurified from transfected HEK-293 cells
# B2: human ANXA1 protein: recombinant human ANXA1 (R&D Systems) (protein)
# chain: AMVSEFLKQAWFIENEEQEYVQTVKSSKGGPGSAVSPYPTFNPSSDVAALHKAIMVKGVDEATIIDILTKRNNAQRQQIKAAYLQETGKPLDETLKKALTGHLEEVVLALLKTPAQFDADELRAAMKGLGTDEDTLIEILASRTNKEIRDINRVYREELKRDLAKDITSDTSGDFRNALLSLAKGDRSEDFGVNEDLADSDARALYEAGERRKGTDVNVFNTILTTRSYPQLRRVFQKYTKYSKHDMNKVLDLELKGDIEKCLTAIVKCATSKPAFFAEKLHQAMKGVGTRHKALIRIMVSRSEIDMNDIKAFYQKMYGISLCQAILDETKGDYEKILVALCGGN
# Key:
# human ANXA1 = target: T1, human ANXA1; experiment: Vesicle tethering assay (turbidity of extrusion generated phosphatidylserine vesicles); assay type: biochemical
# Method: Vesicle Tethering Assay. Vesicle tethering was assessed by using a previously reported protocol (19) with modifications to adjust to a 96-well plate reader format. Large unilaminar vesicles of ˜100 nm in diameter were generated by filter extrusion. Briefly, 2.5 mg of phosphatidylserine (Avanti Polar Lipids) was solubilized in 1 mL of buffer containing: 10 mmol/L Hepes (Sigma, St. Louis, Mo.), 100 mmol/L NaCl (Sigma), 100 μmon ethylenediaminetetraacetic acid (Boston BioProducts, Ashland, Mass.), pH 6. The lipid mixture was run through an extruder containing 0.1 μm polycarbonate membranes (Avanti Polar Lipids) ten times, during which point the lipid mixture went from cloudy to clear in appearance. Vesicles were assessed for correct size and abundance prior to use by NanoSight nanoparticle tracking analysis. […] 27 jd of extrusion generated vesicles were added to each well and vesicle aggregation was measured at wavelength 350 on a SpectraMax M5 96-well plate reader (Molecular Devices, San Jose, Calif.). For calcium chelation, 0.48 mmol/L ethylenediaminetetraacetic acid was incubated with 1 μg human ANXA1 protein for five minutes at room temperature prior to adding the extrusion generated vesicles, after which the reaction was carried out for 20 minutes and then aggregation was determined on a plate reader. […]
# [1] = target: ANXA1 on human SMC-derived EVs (Homo sapiens, UniProt P04083); conditions: 0.48 mmol/L EDTA in PBS, 30 minutes at 37° C.
# Method: (§1) ANXA1 EVs surface localization was assessed by isolating human SMC and VIC EVs. 10 mL of conditioned media was centrifuged at 100,000 g for 40 minutes, and the resulting EVs pellet was resuspended in PBS or PBS containing 0.48 mmol/L EDTA and incubated for 30 minutes at 37° C. EVs were pelleted a second time at 100,000 g for 40 minutes. The supernatant was collected, and the pellet was resuspended in 100 μl PBS. Samples were incubated with 6×-loading buffer (Boston Bioproducts) and boiled for 10 minutes, prior to analysis by western blot. ANXA1 released into the supernatant was assessed as being on the surface of EVs.
# [2] = target: ANXA1 on human VIC-derived EVs (Homo sapiens, UniProt P04083); conditions: 0.48 mmol/L EDTA in PBS, 30 minutes at 37° C.
# Method: as §1
# ANXA1 loading on EVs = ANXA1 loading on EVs derived from SMCs treated with mdivi-1 (western blot); assay type: cell-based; conditions: human SMCs in OM, 14 days
# Method: Primary Cell Culture. Primary human coronary artery SMCs were obtained from Promocell (Heidelberg, Germany) and expanded in SMC Growth Medium 2 (Promocell) supplemented with epidermal growth factor (0.5 ng/mL), insulin (5 μg/mL) basic fibroblast growth factor- B (2 ng/mL), and 5% fetal bovine serum. Primary human VICs were obtained from human aortic valve tissue using collagenase digestion (28, 30). Tissue-derived SMCs were confirmed as alpha smooth muscle actin-positive by FACS (30). Tissue-derived VICs were confirmed as vimentin positive by immunohistochemistry (28). Cells were cultured at 37° C. (5% CO2, 90% humidity) and used between passages 1 and 5. […] Tissue non-specific alkaline phosphatase (TNAP) activity was analyzed after 14 days in culture using whole cell lysates and the TNAP enzyme activity assay (BioVision, Inc., Milpitas, Calif.), according to the manufacturer's protocol. Calcification was analyzed in cells after 21 days in culture by incubating culture wells with OsteoSense680 (1:100), near-infrared based bisphosphonate calcium tracer, for 24 hours at 37° C. […]
# RNA and Protein Analysis. […] ANXA1 EVs surface localization was assessed by isolating human SMC and VIC EVs. […]
# [3] = target: dynamin-related protein 1 (DRP1) (Homo sapiens, UniProt O00429); conditions: OM; cited from earlier work
# [4] = Annexin vesicle binding (confocal, swelling generated phosphatidylserine vesicles); conditions: 2 μg ANXA1-GFP, 1 mmol/L CaCl2, five minutes
# Method: Annexin Vesicle Binding. Giant unilamellar vesicles were generated using a previously described protocol (50) with some modifications. Briefly, for the confocal-based ANXA1 vesicle binding assay, 12 mm diameter cover glass circles were coated with 5% polyvinyl alcohol (Millipore, Burlington, Mass.) in water and left to dry overnight. Dried slides were then coated with 20 μl of 10 mg/mL phosphatidylserine (Avanti Polar Lipids, Alabaster, Ala.) in chloroform containing 0 1% DiR′; DiIC18(7) 1,1′-Dioctadecyl-3,3,3′,3′-Tetramethylindotricarbocyanine Iodide) (Fisher Scientific) and dried under vacuum. 1 mL of tris buffer (pH 6) was added to cover the coated cover glass circle in a 24-well plate, and giant unilaminar vesicles were formed by swelling at room temperature for 1 hour. Vesicles were detached from the cover glass by gently tapping the plate directly beneath the slide. ANXA1 tagged green fluorescent protein (ANXA1-GFP) was obtained by transfecting HEK-293 cells (ATCC, Manassas, Va.) with human ANXA1-GFP plasmid (OriGene, Rockville, Md., #RG201569). […] GFP laser settings were adjusted such that no GFP signal was detected in samples without ANXA1-GFP added.
# dynamin-related protein 1 (DRP1), sequence (O00429 whole entry): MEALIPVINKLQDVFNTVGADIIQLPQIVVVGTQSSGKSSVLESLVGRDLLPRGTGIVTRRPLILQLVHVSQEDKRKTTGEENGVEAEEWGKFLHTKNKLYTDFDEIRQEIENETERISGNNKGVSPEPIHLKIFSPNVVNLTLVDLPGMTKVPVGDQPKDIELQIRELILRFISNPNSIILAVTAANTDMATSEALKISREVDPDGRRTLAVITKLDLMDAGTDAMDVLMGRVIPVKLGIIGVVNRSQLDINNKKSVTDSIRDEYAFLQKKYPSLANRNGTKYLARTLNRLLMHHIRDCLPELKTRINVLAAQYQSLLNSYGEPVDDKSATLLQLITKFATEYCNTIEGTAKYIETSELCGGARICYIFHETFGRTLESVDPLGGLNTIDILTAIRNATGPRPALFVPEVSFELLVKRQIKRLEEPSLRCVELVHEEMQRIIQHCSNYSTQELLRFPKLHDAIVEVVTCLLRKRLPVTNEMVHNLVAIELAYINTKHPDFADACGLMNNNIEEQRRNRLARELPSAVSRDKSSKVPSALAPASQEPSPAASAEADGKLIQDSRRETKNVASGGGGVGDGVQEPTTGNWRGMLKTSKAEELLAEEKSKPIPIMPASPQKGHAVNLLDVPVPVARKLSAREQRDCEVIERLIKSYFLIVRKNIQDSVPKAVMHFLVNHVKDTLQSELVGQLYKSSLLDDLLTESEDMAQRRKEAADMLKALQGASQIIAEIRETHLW
molecule,measurement,setting,value
"O=C(O)CN(CCN(CC(=O)O)CC(=O)O)CC(=O)O [EDTA, ethylenediaminetetraacetic acid]",ANXA1-mediated vesicle aggregation,"human ANXA1; 0.48 mmol/L EDTA, 1 μg human ANXA1 protein, 20 minutes",attenuated
same,ANXA1 release from EVs,[1],increased
same,ANXA1 release from EVs,[2],increased
COc1cc(-n2c(S)nc3ccccc3c2=O)c(Cl)cc1Cl [mdivi-1],increased ANXA1 loading on EVs in OM,ANXA1 loading on EVs,suppressed
same,SMC and VIC calcification,[3],suppressed
same,intracellular calcium storage,[3],increased
same,mitochondrial fragmentation,[3],reduced
B1,ANXA1 localization on tethered vesicles,[4],enriched ANXA1 at tethered vesicle membrane contact sites
B2,vesicle aggregation (turbidity),"human ANXA1; 0 up to 5 μg recombinant ANXA1, 1 mmol/L CaCl2, ~150 nm phosphatidylserine vesicles",time- and concentration-dependent vesicle aggregation
